# According to PMC4910235, “Selenophene and thiophene-core estrogen receptor ligands that inhibit motility and development of parasitic stages of Haemonchus contortus” (Parasites & Vectors, 2016):
# pEC50, pIC50: −log10 of the molar value.
# Columns and labels:
# ERβ = target: T1, ERβ (Homo sapiens, UniProt Q92731); test: 3×ERE-luciferase reporter gene assay in HEK 293 T cells, ERβ; type: cell-based
# T1 construct: expressed in transfected cells; host or cells: HEK 293 T
# Description: Cells in phenol red-free DMEM with 10 % FBS were plated. […] The next day, the cells were treated with increasing doses of ER ligands diluted in phenol red-free DMEM with 10 % FBS. After 24 h, luciferase activity was measured using the dual-luciferase reporter assay system (Promega, Fitchburg, USA) performed according to the manufacturer’s protocol.
# [1] = target: human ERβ ligand binding domain (Homo sapiens, UniProt Q92731); test: Competitive fluorometric receptor-binding assay, ERβ; conditions: estradiol = 100 %; fluorescence polarisation, coumestrol tracer
# human ERβ ligand binding domain, sequence (Q92731 264-498 limits assumed): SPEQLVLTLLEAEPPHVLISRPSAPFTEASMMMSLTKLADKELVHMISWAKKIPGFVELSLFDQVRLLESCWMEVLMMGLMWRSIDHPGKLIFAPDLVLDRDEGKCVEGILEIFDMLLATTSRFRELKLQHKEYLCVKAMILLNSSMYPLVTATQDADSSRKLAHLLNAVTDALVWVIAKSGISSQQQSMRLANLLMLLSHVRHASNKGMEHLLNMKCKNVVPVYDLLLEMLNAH
# Description: (§1) Relative binding affinities were determined by a competitive fluorometric binding assay, as described previously. Briefly, 40 nM fluorescence tracer (coumestrol, Sigma-Aldrich) and 0.8 μM purified human ERα or ERβ ligand binding domain were diluted in 100 mM potassium phosphate buffer (pH 7.4), containing 100 μg/ml bovine γ-globulin (Sigma-Aldrich), and an equal volume of test compound was added. Incubation was for 2 h at 25 °C. The fluorescence polarisation values were measured. […] The values given are the average ± range of two independent determinations. IC50 values were calculated using a published formula [29].
# [2] = target: T2, human ERα ligand binding domain (Homo sapiens, UniProt P03372); test: Competitive fluorometric receptor-binding assay, ERα; conditions: estradiol = 100 %; fluorescence polarisation, coumestrol tracer
# T2 sequence (P03372 311-547 limits assumed): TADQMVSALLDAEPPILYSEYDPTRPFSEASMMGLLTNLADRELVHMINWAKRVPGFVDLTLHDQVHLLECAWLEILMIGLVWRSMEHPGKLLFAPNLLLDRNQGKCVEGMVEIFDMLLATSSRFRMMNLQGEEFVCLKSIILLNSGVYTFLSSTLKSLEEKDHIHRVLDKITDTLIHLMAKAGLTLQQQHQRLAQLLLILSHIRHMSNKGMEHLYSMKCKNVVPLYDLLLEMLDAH
# Description: as §1
# T1 sequence (Q92731 whole entry): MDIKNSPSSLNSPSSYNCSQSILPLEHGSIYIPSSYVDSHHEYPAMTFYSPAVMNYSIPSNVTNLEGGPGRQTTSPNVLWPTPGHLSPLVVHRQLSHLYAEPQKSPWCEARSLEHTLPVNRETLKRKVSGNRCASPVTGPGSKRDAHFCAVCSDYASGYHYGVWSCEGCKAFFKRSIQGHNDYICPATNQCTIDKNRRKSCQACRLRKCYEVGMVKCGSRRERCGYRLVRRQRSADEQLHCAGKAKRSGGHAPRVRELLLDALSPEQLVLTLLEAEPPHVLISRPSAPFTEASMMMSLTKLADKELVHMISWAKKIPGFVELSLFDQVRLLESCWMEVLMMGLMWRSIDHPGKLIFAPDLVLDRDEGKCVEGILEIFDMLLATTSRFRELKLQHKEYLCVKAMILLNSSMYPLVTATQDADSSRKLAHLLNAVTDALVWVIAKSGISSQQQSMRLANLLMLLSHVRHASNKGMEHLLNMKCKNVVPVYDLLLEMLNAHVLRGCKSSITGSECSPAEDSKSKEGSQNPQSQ
compound,measurement,setting,value
Oc1ccc(-c2ccc(-c3ccc(O)cc3Cl)[se]2)c(Cl)c1 [WZY-2],pIC50,"ERβ; against 10^-8 M E2, read-out: Antagonist mode ERβ IC50",5.52
same,pEC50,"ERβ; doses up to 10^-5 M, read-out: Agonist mode ERβ EC50",< 5.00
same,profile on ERβ (agonist/antagonist),ERβ; luciferase reporter,antagonist
same,Antagonist mode ERβ Eff (%E2),"ERβ; percentage of 10^-8 M 17β-estradiol, mean ± SD",13.9 ± 5.3 %E2
same,relative binding affinity (RBA) ERβ,[1],12.7%
same,relative binding affinity (RBA) ERα,[2],6.11%
